These are literature values, as cited in patent publication US6072029A, “Derivatives of human α1 -antitrypsin and process for their preparation” (priority 1984, dated 2000).

Like-named read-outs stand apart in the source and are kept apart here.

The subject of the data set is thrombin.

Take “α1 -AT: natural human α1-antitrypsin, serine protease inhibitor”: the inactivation of thrombin result (increasing molar excess of α1-antitrypsin) was “completely inhibited”; the inactivation of thrombin result (molar ratio of 1:1) was “weak and incomplete”.
